Here are results for 10 compounds from ChEMBL document CHEMBL1201862, “PubChem BioAssay data set” (2004).

Test systems include SNB-19; NCI-H522; SK-MEL-2; ACHN; NCI/ADR-RES; SF-295; MDA-MB-435; SK-OV-3; MCF7; NCI-H23; SK-MEL-28; HOP-62; MDA-MB-231; A549; OVCAR-8; SF-539; CAKI-1; T47D; HT-29; SNB-75.
Holding throughout (experiment): DTP human tumour cell line panel, 48 h

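Dose response: 5 concentrations. Exposure: 48 h. Format: 96-well plates. Endpoint: linear interpolation; highest concentration if not reached. GI50 marks 50% less growth.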 Activity calls are given as the source filed them. Cut-off read from the data, not from the text of the source: active = GI50 up to about 1.1 µM and inactive = higher.

For `S=C(Nc1ccc2cn[nH]c2c1)Nc1ccc2cn[nH]c2c1`, the GI50 in the test with SNB-19 is > 100 µM (inactive); with NCI-H522, 34.1 µM (inactive); in the test with SK-MEL-2, 35.6 µM (inactive); with ACHN it was 51.8 µM (inactive); in the test on NCI/ADR-RES it was > 100 µM (inactive); with SF-295, 87.3 µM (inactive). Further, the GI50 in the test with MDA-MB-435 was 58.9 µM (inactive); in the test on SK-OV-3, > 100 µM (inactive); in the test on MCF7, 82 µM (inactive); with NCI-H23 it was 41.6 µM (inactive); in the test with SK-MEL-28 it was > 100 µM (inactive); in the test with HOP-62, > 100 µM (inactive). In addition, the GI50 in the test on MDA-MB-231 was > 100 µM (inactive); in the test on A549, 96.8 µM (inactive); in the test with OVCAR-8, 72.3 µM (inactive); in the test on SF-539 it was > 100 µM (inactive); with CAKI-1, > 100 µM (inactive); in the test with T47D, 33.5 µM (inactive). For the same compound, the GI50 was 50 µM (inactive) with HT-29 and 53 µM (inactive) with SNB-75.
Consider `Cc1nc(Nc2ccc(Cl)cc2Cl)sc1C(=O)Nc1ccccc1`, for which the GI50 was > 100 µM (inactive) in the test on SNB-19; 38.5 µM (inactive) in the test on NCI-H522; 39.8 µM (inactive) in the test on SK-MEL-2; 36.1 µM (inactive) with ACHN; 96.6 µM (inactive) in the test with NCI/ADR-RES; 29.9 µM (inactive) in the test with SF-295. The GI50 in the test with MDA-MB-435 was 42.2 µM (inactive); in the test on SK-OV-3 it was > 100 µM (inactive); in the test with MCF7, 36 µM (inactive); in the test with NCI-H23 it was 46 µM (inactive); in the test on SK-MEL-28 it was > 100 µM (inactive); with HOP-62, 81.1 µM (inactive). Further, the GI50 was 56.5 µM (inactive) with MDA-MB-231; 36.6 µM (inactive) in the test on A549; > 100 µM (inactive) in the test with OVCAR-8; > 100 µM (inactive) in the test on SF-539; 49.8 µM (inactive) with CAKI-1; 22.4 µM (inactive) in the test on T47D. The GI50 was 35.3 µM (inactive) in the test with HT-29 and 39 µM (inactive) in the test on SNB-75.
In the case of `Clc1ccccc1C(Nc1ncccn1)Nc1ncccn1`, the GI50 with SNB-19, in the test with NCI-H522, in the test on SK-MEL-2, in the test on ACHN, in the test with NCI/ADR-RES and with SF-295 was > 100 µM (inactive) each time. Further, the GI50 was 76.6 µM (inactive) with MDA-MB-435; > 100 µM (inactive) in the test on SK-OV-3; > 100 µM (inactive) with MCF7; > 100 µM (inactive) in the test on NCI-H23; > 100 µM (inactive) in the test on SK-MEL-28; > 100 µM (inactive) with HOP-62. Also, the GI50 in the test with MDA-MB-231, in the test with A549, in the test with OVCAR-8, in the test on SF-539, in the test on CAKI-1 and in the test on T47D was > 100 µM (inactive) in each case. Besides, the GI50 in the test with HT-29 is > 100 µM (inactive); in the test with SNB-75, 47 µM (inactive).
Turning to `CCOC(=O)NNC(=O)NCCNC(=O)NNC(=O)OCC`, the GI50 in the test with SNB-19, in the test with NCI-H522, in the test with SK-MEL-2, in the test on NCI/ADR-RES, with MDA-MB-435 and in the test on SK-OV-3 was > 100 µM (inactive) each time. In addition, the GI50 in the test with MCF7, with NCI-H23, with SK-MEL-28, with MDA-MB-231, with A549 and in the test on OVCAR-8 was > 100 µM (inactive) in each case. Further, the GI50 with SF-539, in the test with CAKI-1, in the test on T47D, with HT-29 and with SNB-75 was > 100 µM (inactive) in each case.
As for `COC(=O)c1c2c(cc3c1CC1(Cc4cc5c(c(C=O)c4C1)CCC5)C3)CCC2` (stereo unspecified), the GI50 in the test on SNB-19 is 44.7 µM (inactive); in the test on NCI-H522 it was 17.3 µM (inactive); with SK-MEL-2, 23.8 µM (inactive); in the test with ACHN, 32.9 µM (inactive); in the test with NCI/ADR-RES it was 40.5 µM (inactive); in the test with SF-295 it was 41.4 µM (inactive). The GI50 was 17.7 µM (inactive) in the test on MDA-MB-435; 42.5 µM (inactive) with SK-OV-3; 42 µM (inactive) in the test with MCF7; 47.8 µM (inactive) in the test with NCI-H23; 52.5 µM (inactive) in the test on SK-MEL-28; 51.9 µM (inactive) with HOP-62. In addition, the GI50 in the test with MDA-MB-231 is 28.4 µM (inactive); in the test on A549, 27.9 µM (inactive); in the test on OVCAR-8, 42.8 µM (inactive); with SF-539, 75.5 µM (inactive); in the test with CAKI-1, > 100 µM (inactive); in the test on T47D, 30.7 µM (inactive). Moreover, the GI50 in the test on HT-29 was 21.4 µM (inactive); in the test on SNB-75 it was > 100 µM (inactive).
Regarding `CCn1c(=O)c2c3cc(OC(C)=O)ccc3oc2c2ccc(OC(C)=O)cc21`, the GI50 was 46.9 µM (inactive) in the test on SNB-19; 39.1 µM (inactive) in the test with NCI-H522; 24.8 µM (inactive) in the test with ACHN; 36.9 µM (inactive) in the test with NCI/ADR-RES; 19.8 µM (inactive) in the test with SF-295; 31.1 µM (inactive) with MDA-MB-435. Besides, the GI50 with SK-OV-3 is 75.9 µM (inactive); in the test with MCF7, 35 µM (inactive); with NCI-H23 it was 37.9 µM (inactive); in the test on SK-MEL-28, 49 µM (inactive); with HOP-62, 37.9 µM (inactive); in the test with MDA-MB-231, 48.4 µM (inactive). The GI50 in the test on A549 was 43.9 µM (inactive); with OVCAR-8 it was 30.8 µM (inactive); with SF-539, 27.5 µM (inactive); in the test with CAKI-1, 40 µM (inactive); in the test with T47D, 20.2 µM (inactive); with HT-29, 37.3 µM (inactive). In addition, in the test on SNB-75, the GI50 is 2.69 µM (inactive).
Take `CC(C)Cc1c(C#N)c(C#N)c(N)n1Cc1ccccc1`: the GI50 is > 100 µM (inactive) in the test with SNB-19; > 100 µM (inactive) with NCI-H522; > 100 µM (inactive) in the test with SK-MEL-2; 82.4 µM (inactive) with ACHN; > 100 µM (inactive) in the test with NCI/ADR-RES; > 100 µM (inactive) with SF-295. Further, the GI50 in the test with MDA-MB-435, in the test on SK-OV-3, with MCF7, in the test with NCI-H23, in the test with HOP-62 and in the test on MDA-MB-231 was > 100 µM (inactive) in each case. The GI50 in the test with A549, in the test on OVCAR-8, with SF-539, with CAKI-1, in the test with T47D and in the test on HT-29 was > 100 µM (inactive) in each case. Besides, in the test on SNB-75, the GI50 was 40.8 µM (inactive).
As for `OC(C#CCN1CCCC1)(c1ccccc1)c1ccccc1Cl` (stereo unspecified), the GI50 with NCI-H522 was 22.6 µM (inactive); in the test with SK-MEL-2 it was 26.6 µM (inactive); in the test on ACHN, 23.9 µM (inactive); in the test with NCI/ADR-RES it was 23.3 µM (inactive); in the test on SF-295, 24.6 µM (inactive); in the test on MDA-MB-435 it was 23.2 µM (inactive). The GI50 is 61 µM (inactive) with SK-OV-3; 17.9 µM (inactive) with MCF7; 37.3 µM (inactive) in the test with NCI-H23; 17.1 µM (inactive) with SK-MEL-28; 19.5 µM (inactive) in the test with HOP-62; 47.1 µM (inactive) in the test on MDA-MB-231. The GI50 with A549 was 33.4 µM (inactive); in the test with OVCAR-8 it was 33.8 µM (inactive); with SF-539, 26.5 µM (inactive); in the test on CAKI-1, 24.8 µM (inactive); in the test on T47D it was 28.6 µM (inactive); in the test with HT-29, 16.5 µM (inactive). Further, in the test on SNB-75, the GI50 is 59.4 µM (inactive).
Consider `Cc1ccc(/C(=C\C(=O)C(=O)NC23CC4CC(CC(C4)C2)C3)Sc2ccccc2)cc1`, for which the GI50 with NCI-H522, in the test on SK-MEL-2, in the test with ACHN, with NCI/ADR-RES, in the test with SF-295 and with MDA-MB-435 was > 10 µM (inactive) each time. The GI50 with SK-OV-3, in the test with MCF7, with NCI-H23, in the test with SK-MEL-28, in the test with HOP-62 and in the test on MDA-MB-231 was > 10 µM (inactive) throughout. In addition, the GI50 in the test on OVCAR-8, in the test with SF-539, in the test on CAKI-1, with T47D, with HT-29 and in the test on SNB-75 was > 10 µM (inactive) throughout.
Consider `COc1cc2cc(C(=O)N3CC(CCl)c4c3cc(NCCN)c3ccccc43)[nH]c2c(OC)c1OC` (stereo unspecified), for which the GI50 in the test with SNB-19, in the test on NCI-H522, with SK-MEL-2, with ACHN, in the test with NCI/ADR-RES and in the test with SF-295 was < 0.01 µM (active) in each case. The GI50 was < 0.01 µM (active) in the test on MDA-MB-435; < 0.0189 µM (active) with SK-OV-3; < 0.01 µM (active) in the test on MCF7; < 0.01 µM (active) with NCI-H23; 0.0134 µM (active) in the test with SK-MEL-28; < 0.01 µM (active) in the test with HOP-62. The GI50 with MDA-MB-231, in the test with A549, with OVCAR-8, with SF-539, in the test on CAKI-1 and in the test with T47D was < 0.01 µM (active) throughout. In addition, the GI50 with SNB-75 is 0.0102 µM (active).
